In publication PMC10424179, “Disrupting Kaposi’s Sarcoma-Associated Herpesvirus (KSHV) Latent Replication with a Small Molecule Inhibitor” (Journal of Medicinal Chemistry, 2023):
Values after ≈ are worked out from the molar mass of the structure shown.

Key:
[1] = biological target: T1, oligomerization-deficient mutant of a LANA C-terminal protein fragment (aa 1008–1146) (Human herpesvirus 8 (Kaposi's sarcoma-associated herpesvirus), UniProt Q76SB0); assay: Microscale thermophoresis (MST) binding assay; parameters: species or system Kaposi's sarcoma-associated herpesvirus (KSHV); conditions: read-out: KD value (MST); LANA aa 1008–1146 mutant; means of at least three replicates
T1 sequence (Q76SB0 1008-1146): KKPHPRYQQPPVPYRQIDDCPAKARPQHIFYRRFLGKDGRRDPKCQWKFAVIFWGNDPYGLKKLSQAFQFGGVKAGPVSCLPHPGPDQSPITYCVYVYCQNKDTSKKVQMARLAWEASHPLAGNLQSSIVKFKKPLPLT
Text: (§1) In these assays, an oligomerization-deficient mutant of a LANA C-terminal protein fragment (aa 1008–1146) and an oligonucleotide representing LANA-binding site (LBS) 1 were used, which are convenient to use and handle for the described biophysical methods, while maintaining the essential DNA-binding interface.[25]
Equation y = A2 + (A1-A2)/(1 + (x/x0)^p)
1.3 Microscale Thermophoresis (MST) Assay
Microscale Thermophoresis Assay was done as mentioned in a previous publication. 2

[2] = biological target: LANA–DNA interaction (oligomerization-deficient LANA DBD aa 1008–1146 mutant / LBS1) (Human herpesvirus 8 (Kaposi's sarcoma-associated herpesvirus), UniProt Q76SB0); assay: Electrophoretic mobility shift assay (EMSA), LANA DBD mutant with LBS1 oligonucleotide; assay type: biochemical, Kaposi's sarcoma-associated herpesvirus (KSHV); conditions: compound at 250 μM; LBS1 oligonucleotide; LANA aa 1008–1146 mutant
Method: as §1
Equation y = A2 + (A1-A2)/(1 + (x/x0)^p) […]
1.4 Electrophoretic Mobility Shift Assay (EMSA)
The EMSA was carried out with slight modific ations as described previously 2 based on the assay in Hellert et al. (2013). 3 His-tagged oligomerization-deficient LANA DBD (aa1008-1146) mutant protein or LANA DBD (aa934-1162) wild type protein (200 nM final) was incubated with a 5´-Dy682-labeled double stranded DNA probe (IBA Lifesciences) (20 nM final) for 30 minutes at RT in the dark. The reaction buffer consisted of 30 mM Tris HCl pH 7.5, 50 mM KCl, 10 mM MgCl2, 1 mM DTT, 1 mM EDTA, 10% glycerol, 0.25% Tween20, 0.5 mg/mL BSA and 0.05 mg/mL poly(dI-dC). […]
dark. 10 µL of the reaction was run on a pre -run native 5% acrylamide gel for 45 minutes at 100V with tris-borate-EDTA buffer. Images of the gels were acquired and analysed with the Odyssey (Licor) using the Image Studio software.
Fig S2: Gels of EMSA experiments at 250 μM for all compounds (A) and dose-dependent curves for compound 20 using LANA DBD mutant (B) and LANA wildtype (C) as well as LBS1. Values are means […]
Gleichung y = A2 + (A1-A2)/(1 + (x/x0)^p) […]

[3] = Metabolic stability in human liver S9 fraction; assay type: in vitro ADME; conditions: human liver S9, 1 μM compound
Method: (§2) The next step was an in vitro ADMET profiling of the best seven compounds so far: 9, 11, 14, 19, 20, 21, and 27. The compounds were tested for their kinetic solubility (1% DMSO in PBS, pH 7.4), lipophilicity (chromatographic Log D7.4 value), cellular permeability (using Caco-2 cells), and metabolic stability (using mouse and human liver S9 fractions) (see Table 3). […]
(§3) 1.7 Metabolic Stability in Liver S9 Fractions
(§4) For the evaluation of combined phase I and phase II metabolic stability, the compound (1 μM) was incubated with 1 mg/mL pooled mouse liver S9 fraction (Xenotech, Kansas City, USA) or human liver S9 fraction (Corning, USA), 2 mM NADPH, 1 mM UDPGA, 10 mM MgCl 2, 5 mM GSH and 0.1 mM PAPS at 37 °C for 240 min. The metabolic stability of testosterone, verapamil and ketoconazole were determined in parallel to confirm the enzymatic activity of mouse S9 fractions, for human S9 testosterone, diclofenac and propranolol were used. The incubation was stopped after defined time points by precipitation of aliquots of S9 enzymes with 2 volumes of cold acetonitrile containing internal standard (150 nM diphenhydramine). Samples were stored on ice until the end of the incubation and precipitated protein was removed by centrifugation (15 min, 4 °C, 4,000 g). Concentration of the remaining test compound at the different time points was analyzed by HPLC-MS/MS (TSQ Quantum Access MAX, Thermo Fisher, Dreieich, Germany) and used to determine half -life (t1/2). Values are means of three

[4] = Metabolic stability in mouse liver S9 fraction; assay type: in vitro ADME; conditions: pooled liver S9 fraction, mouse liver S9, 1 μM compound
Method: as §2, §3, §4

Kinetic solubility = assay type: physicochemical; conditions: PBS with 1% DMSO; 1% DMSO in PBS, pH 7.4
Method: (§5) The next step was an in vitro ADMET profiling of the best seven compounds so far: 9, 11, 14, 19, 20, 21, and 27. The compounds were tested for their kinetic solubility (1% DMSO in PBS, pH 7.4), lipophilicity (chromatographic Log D7.4 value), cellular permeability (using Caco-2 cells), and metabolic stability (using mouse and human liver S9 fractions) (see Table 3).
The desired compounds were sequentially diluted in DMSO in a 96-well plate. 1.5 µL of each well were transferred into another 96-well plate and mixed with 148.5 µL of PBS. Plates were shaken for 5 min at 600 rpm at room temperature (r.t.), and the absorbance at 620 nm was measured. Absorbance values were normalized by blank subtraction and plotted using GraphPad Prism 8.4.2 (GraphPad Software, San Diego, CA, USA). Solubility (S) was determined based on the First X value of AUC function using a threshold of 0.005. […]

Chromatographic LogD7.4 = assay type: physicochemical; conditions: reversed-phase HPLC, NUCLEODUR C18 Pyramid column; pH 7.4, HPLC-MS based; read-out: Chrom. LogD7.4
Method: as §2
LogD7.4 was analyzed using an HPLC−MS based method. The retention time of 12 compounds with known LogD7.4 was determined and plotted toward their LogD7.4. Linear regression was used to determine the LogD7.4 of unknown compounds. Analysis was performed using a Dionex Ultimate 3000 HPLC system coupled to a TSQ Quantum Access MAX (Thermo Fisher, Dreieich, Germany) with the following conditions: EC150/2 NUCLEODUR C18 Pyramid column, 5 μM (Macherey Nagel, Düren, Germany); eluent A: 50 mM NH4OAc pH 7.4, eluent B: acetonitrile, and flow: 0.6 mL/min. The gradient was set to 0−100% B from 0 to 2.5 min, […]
are means of two replicates. […]

Caco-2 cell permeability = assay type: in vitro ADME; conditions: human, pH 7.4, Caco-2 monolayer, apical to basolateral
Method: as §5
MTT Assay: Viability of HEK293 cells ~48 hours after treatment […]
Fig S4: MTT assay for compounds 11, 14, 19, 20 and 21 using HEK293 cells. Values are means of […]
Permeability of the compounds was assessed using Caco2 monolayers grown on Transwell® (3460 Costar, Corning). In brief, cells were seeded 60.000 cells/well in 12-well Transwell plates in DMEM medium supplemented with 10% FCS and 1% NEAA. Cells were grown for 7 to 9 days with medium replacement every other day until they reached a tight monolayer. Tightness was defined as transepithelial resistance (TEER) values >300 Ω/cm² (measured using an EVOM Volt-Ohmmeter, World Precision Instruments). At the day of permeability as say, the compound stock solutions in DMSO were diluted to 10µM in Krebs -Ringer-buffer (KRB, pH 7.4). Cells treated with KRB only served as control. Monolayer was washed two times with prewarmed KRB and incubated with 500 µl sample on the apical compartment. Samples from the basolateral side were drawn at t = 0, 15, 30, 60, 120, 180 and 300 min and replaced with fresh buffer. The plates were incubated for 5 h in a cell culture incubator with lateral shaking (200 rpm). TEER values were measured again at the end of the permeability test. Compound concentration was determined with HPLC-ESI-MS/MS in SRM mode and calculated for the cumulative transport. Values are means of three replicates.

| Compound | Kd [1] [µM] | Inhibition (EMSA, LBS1) @250 μM [2] | also measured |
| --- | --- | --- | --- |
| Cc1cc(-c2cccnc2)ncc1-n1cc(-c2ccc(C(=O)O)cc2)nn1 [Compound 4] | 81.3 ± 10.5 |  |  |
| Cc1cc(-c2ccncc2)ncc1-n1cc(-c2ccc(C(=O)O)cc2)nn1 [Compound 5] | 57.5 ± 6.8 |  |  |
| Cc1cc(-c2cncnc2)ncc1-n1cc(-c2ccc(C(=O)O)cc2)nn1 [Compound 6] | 13.3 ± 2.5 | 74% |  |
| Cc1cc(-c2cncc(O)c2)ncc1-n1cc(-c2ccc(C(=O)O)cc2)nn1 [Compound 7] | 48.3 ± 11.8 |  |  |
| Cc1cc(-c2ccc(O)nc2)ncc1-n1cc(-c2ccc(C(=O)O)cc2)nn1 [Compound 8] | 13.8 ± 2.7 | 42% |  |
| COc1cncc(-c2cc(C)c(-n3cc(-c4ccc(C(=O)O)cc4)nn3)cn2)c1 [Compound 9] | 11 ± 1.9 | 97% | microsomal CLint at 1 µM ([3]; read-out: MetStab Human Liver S9 Clint): < 5.8 µL/min/mg; half-life at 1 µM ([3]; read-out: MetStab Human Liver S9 t1/2): > 2 h; microsomal CLint at 1 µM ([4]; read-out: MetStab Mouse Liver S9 Clint): < 5.8 µL/min/mg; half-life at 1 µM ([4]; read-out: MetStab Mouse Liver S9 t1/2): > 2 h; solubility kinetic at 5 min (Kinetic solubility): 139 ± 18 µM (≈ 53.8 µg/mL); chromatographic logD (Chromatographic LogD7.4): -0.36; Papp A→B at 5 h, 10 µM (Caco-2 cell permeability): 20 ± 5 nm/s |
| COc1ccc(-c2cc(C)c(-n3cc(-c4ccc(C(=O)O)cc4)nn3)cn2)cn1 [Compound 10] | 9.2 ± 2.1 | n.i. (n.i. = no inhibition for inhibition <10%) |  |
| Cc1cc(-c2cnc3ccccc3c2)ncc1-n1cc(-c2ccc(C(=O)O)cc2)nn1 [Compound 12] | 31 ± 2.5 |  |  |
| Cc1cc(-c2ccccc2)ncc1-n1cc(-c2ccc(C(=O)O)cc2)nn1 [Compound 13] | 7.6 ± 2 | n.i. (n.i. = no inhibition for inhibition <10%) |  |
| Cc1cc(-c2cccc(Cl)c2)ncc1-n1cc(-c2ccc(C(=O)O)cc2)nn1 [Compound 15] | 22.1 ± 4.8 | n.i. (n.i. = no inhibition for inhibition <10%) |  |
| Cc1cc(-c2ccc(Cl)cc2)ncc1-n1cc(-c2ccc(C(=O)O)cc2)nn1 [Compound 16] | 37.7 ± 59.3 |  |  |
| COc1ccccc1-c1cc(C)c(-n2cc(-c3ccc(C(=O)O)cc3)nn2)cn1 [Compound 17] | 18 ± 2.7 | 38% |  |
| COc1cccc(-c2cc(C)c(-n3cc(-c4ccc(C(=O)O)cc4)nn3)cn2)c1 [Compound 18] | 9.6 ± 2.8 | n.i. (n.i. = no inhibition for inhibition <10%) |  |
| Cc1cc(-c2cccc(O)c2)ncc1-n1cc(-c2ccc(C(=O)O)cc2)nn1 [Compound 22] | 26.4 ± 3.4 |  |  |
| Cc1cc(-c2ccc(O)cc2)ncc1-n1cc(-c2ccc(C(=O)O)cc2)nn1 [Compound 23] | 30.9 ± 3 |  |  |
| CNC(=O)c1cccc(-c2cc(C)c(-n3cc(-c4ccc(C(=O)O)cc4)nn3)cn2)c1 [Compound 24] | 4.3 ± 0.9 | 40% |  |
| CNC(=O)c1ccc(-c2cc(C)c(-n3cc(-c4ccc(C(=O)O)cc4)nn3)cn2)cc1 [Compound 25] | 30.9 ± 3.1 |  |  |
| Cc1cc(-c2cccc(C(=O)O)c2)ncc1-n1cc(-c2ccc(C(=O)O)cc2)nn1 [Compound 26] | 12.1 ± 3.7 | n.i. (n.i. = no inhibition for inhibition <10%) |  |
| Cc1cc(-c2cccc(Oc3ccccc3)c2)ncc1-n1cc(-c2ccc(C(=O)O)cc2)nn1 [Compound 28] | 71.1 ± 9.3 |  |  |
| Cc1cc(-c2cccc(OCc3ccccc3)c2)ncc1-n1cc(-c2ccc(C(=O)O)cc2)nn1 [Compound 29] | 84.8 ± 5.6 |  |  |
| Cc1cc(-c2cccc(OCc3ccccc3Cl)c2)ncc1-n1cc(-c2ccc(C(=O)O)cc2)nn1 [Compound 30] | 159 ± 74 |  |  |
| COc1ccccc1COc1cccc(-c2cc(C)c(-n3cc(-c4ccc(C(=O)O)cc4)nn3)cn2)c1 [Compound 31] | 30.8 ± 15.9 |  |  |
| COc1cccc(COc2cccc(-c3cc(C)c(-n4cc(-c5ccc(C(=O)O)cc5)nn4)cn3)c2)c1 [Compound 32] | 31.3 ± 3 |  |  |
| COc1cc(COc2cccc(-c3cc(C)c(-n4cc(-c5ccc(C(=O)O)cc5)nn4)cn3)c2)cc(OC)c1 [Compound 33] | 96.7 ± 9 |  |  |
| COc1ccc(COc2cccc(-c3cc(C)c(-n4cc(-c5ccc(C(=O)O)cc5)nn4)cn3)c2)cc1 [Compound 34] | 5.3 ± 4 | 31% |  |
| COc1ccc(COc2ccccc2-c2cc(C)c(-n3cc(-c4ccc(C(=O)O)cc4)nn3)cn2)cc1 [Compound 35] | 46.1 ± 5.8 |  |  |
| COc1ccc(COc2ccc(-c3cc(C)c(-n4cc(-c5ccc(C(=O)O)cc5)nn4)cn3)cc2)cc1 [Compound 36] | 26 ± 3.8 |  |  |
